Measurements from publication PMC3479662 (Journal of medicinal chemistry, 2012).
Marks after values point to notes of the source that are not given here.

Assays:
hA1AR [1] = target: T1, hA1AR (Homo sapiens, UniProt P30542); conditions: for agonist character at the A1AR (full / partial agonist): cyclic AMP assay, hA1AR
T1 sequence (P30542 1-326): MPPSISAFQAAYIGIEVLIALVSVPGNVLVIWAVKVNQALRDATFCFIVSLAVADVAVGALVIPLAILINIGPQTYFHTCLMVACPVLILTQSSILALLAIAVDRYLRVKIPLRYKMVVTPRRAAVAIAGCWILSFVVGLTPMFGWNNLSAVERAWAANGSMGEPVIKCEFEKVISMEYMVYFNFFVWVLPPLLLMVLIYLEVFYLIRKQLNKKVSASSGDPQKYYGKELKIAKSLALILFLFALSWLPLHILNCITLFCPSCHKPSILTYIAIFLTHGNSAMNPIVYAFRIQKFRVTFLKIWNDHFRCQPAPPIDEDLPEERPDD

hA1AR [2] = target: T1, hA1AR; assay: Radioligand binding at hA1AR, [3H]R-PIA, membranes of CHO cells; conditions: human orthologue more potent than rat
A3AR = conditions: read-out: Affinity Ki, A3; human unless noted; ref de Zwaart et al.[38]; cited from earlier work
rat A2AAR = conditions: ref Jacobson et al.[39]; cited from earlier work
rat A1AR = conditions: ref Jacobson et al.[39]; cited from earlier work
hA2AAR = hA2AAR (Homo sapiens, UniProt P29274); assay: Stimulation of cyclic AMP production in A2AAR-expressing CHO cells; assay type: cell-based; conditions: cyclic AMP assay
Chain of hA2AAR (P29274 whole entry): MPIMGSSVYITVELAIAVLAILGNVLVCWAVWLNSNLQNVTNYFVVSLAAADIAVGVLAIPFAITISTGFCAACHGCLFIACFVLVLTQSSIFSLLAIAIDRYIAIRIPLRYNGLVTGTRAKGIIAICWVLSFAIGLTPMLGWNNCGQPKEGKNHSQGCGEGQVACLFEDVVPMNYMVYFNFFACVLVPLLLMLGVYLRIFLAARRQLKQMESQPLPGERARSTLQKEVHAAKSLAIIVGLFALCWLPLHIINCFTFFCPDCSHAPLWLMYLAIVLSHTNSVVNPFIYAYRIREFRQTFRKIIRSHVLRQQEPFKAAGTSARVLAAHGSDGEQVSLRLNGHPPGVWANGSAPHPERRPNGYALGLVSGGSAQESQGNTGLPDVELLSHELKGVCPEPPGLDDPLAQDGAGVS

agonist character at the A1AR (full / partial agonist) (hA1AR [1])	Structure (SMILES)	Ki (A3AR) [nM]	further results
–	CCNC(=O)[C@H]1O[C@@H](n2cnc3c(N)ncnc32)[C@H](O)[C@@H]1O [Compound 1, 5′-N-ethylcarboxamidoadenosine, reference compound]	–	Activation of A1, % of 1, 10 μM (hA1AR [1]; single point at 10 μM, effect of full agonist 1 = 100%, hA1AR CHO cells): 100 % of 1
partial agonists	Nc1ncnc2c1ncn2[C@@H]1O[C@H](C(=O)NCC(F)(F)F)[C@@H](O)[C@H]1O [Compound 5]	–	difference between rat and human A1AR binding affinities (hA1AR [2]): approximately 100 fold
–	Nc1ncnc2c1ncn2[C@@H]1O[C@H](C(=O)NCCCl)[C@@H](O)[C@H]1O [Compound 6, reference compound]	332	–
–	NCCNC(=O)[C@H]1O[C@@H](n2cnc3c(N)ncnc32)[C@H](O)[C@@H]1O [Compound 11]	–	% inhibition, A2A (rat) (rat A2AAR): > 10%; % inhibition, A1 (rat) (rat A1AR): (>10%, rat) ^e
full agonists	Nc1ncnc2c1ncn2[C@@H]1O[C@H](C(=O)NC2CC2)[C@@H](O)[C@H]1O [Compound 16, reference compound]	–	agonist character at the A2AAR (full agonist) (hA2AAR): full agonists
partial agonist	Nc1ncnc2c1ncn2[C@@H]1O[C@H](C(=O)NC2CCC2)[C@@H](O)[C@H]1O [Compound 18]	23	agonist character at the A2AAR (full agonist) (hA2AAR): full agonists
full agonists	Nc1ncnc2c1ncn2[C@@H]1O[C@H](C(=O)NC2CCCC2)[C@@H](O)[C@H]1O [Compound 22]	32	–
